ChEMBL document CHEMBL3351872, “2- and 3-substituted imidazo[1,2-a]pyrazines as inhibitors of bacterial type IV secretion” (Bioorg Med Chem, 2014)

Experiment: Inhibition of Helicobacter pylori VirB11 HP0525 ATPase expressed in Escherichia coli assessed as reduction in inorganic phosphate release by colorimetric ATPase assay

Row | Structure (SMILES) | IC50
1 | Cc1ccc(S(=O)(=O)Nc2nccn3c(-c4ccc5ccccc5c4)cnc23)cc1 | 77 µM
2 | Cc1ccc(S(=O)(=O)Nc2ccc(Nc3nc(Br)cn4cc(-c5ccc6ccccc6c5)nc34)cc2)cc1 | 6 µM
3 | Cc1ccc(S(=O)(=O)NCCNc2nc(Br)cn3cc(-c4ccc5ccccc5c4)nc23)cc1 | 77 µM
